Read-outs that look alike come from different tables or passages of the source.
Legend:
[1] = Stability (physicochemical properties, Table 1); settings: for Stability (photostability): light
[2] = tested on: Human breast cancer cell line (drug-resistant) MCF-7/A; test: Cytotoxicity experiment, SRB method, tumor cell proliferation; type: cell-based; settings: 48 h, read-out: IC50 (umol/L) Breast cancer cell (drug-resistant) MCF-7/A
Procedure: (§1) Human breast cancer cell line (drug-resistant) MCF-7/A, human breast cancer cell line (sensitive) MCF-7/S, prostate cancer cell PC-3, keratinocyte Colo-16, human non-small cell lung cancer cell line A549 and etc. are cultured in RPMI1640 medium (Invitrogen, USA) containing 10 wt % fetal bovine serum (FBS, Hyclone, USA), and epidermal growth factor (EGF) at a concentration of 100 ng/ml is added to stimulate growth. After 2-3 days, cells in logarithmic growth phase are collected, and inoculated at 96 well plates (6500 cells/well/100 ul, RPMI1640 containing 100 ng/mL EGF) for 24 h, and then compound at gradient concentrations (200, 100, 50, 25, 12.5, 6.25, 1 μM/L) are added. The same volume of RPMI1640 containing 1 wt % of dimethyl sulfoxide (DMSO) is used as control group of the experiment; the blank group is only culture medium without cell. Three parallel wells are set up for each concentration group. After incubation is continued for 48 h, the cell survival rate is measured by SRB method. Results are shown in Table 2 and Table 3, respectively.
(§2) Wherein, for experiment on compound cytotoxicity assay by sulforhodamine B (SRB) method: Cells in the logarithmic growth phase are collected and inoculated at 96-well plates (6500 cells/well/100 ul, RPMI1640 containing 100 ng/ml of EGF). After incubation for 24 h, compounds at gradient concentrations (200, 100, 50, 25, 12.5, 6.25, 1 (μM/L)) are added. The same volume of RPMI1640 containing 100 ng/ml of EGF is used as control group of the experiment; the blank group is only culture medium without cell. Three parallel wells are set up for each concentration group. After incubation is continued for 48 h, the cell survival rate is measured by SRB method. 50 μl 10% trichloroacetic acid (TCA) pre-cooled (4° C.) is added to each well, it is fixed for 1 hour at 4° C., washed with water for five times, and completely dried, and then 100 μl of SRB solution (Sigma, USA) at concentration of 0.4% by weight is added, and staining is performed at 37° C. in the dark for 30 min. Wash with acetic acid at a concentration of 1% by weight for 4-5 times, dry in the air, add 200 μl of Tris solution (10 mM, pH 10.5), after sufficiently dissolved, the absorbance (absorption wavelength is 570 nm) is measured in microplate reader.
(§3) The growth inhibition rate (IR) is calculated according to the following formula: IR (%)=[1−(experiment group A value−blank group A value)/(control group A value−blank group A value)]×100%, and the IC50 value is calculated using Origin 6.0 software.

[3] = tested on: human breast cancer cell line (sensitive) MCF-7/S; test: as above; type: cell-based; settings: 48 h, read-out: IC50 (umol/L) Breast cancer cell (sensitive) MCF-7/S
Procedure: as §1, §2, §3

[4] = tested on: human non-small cell lung cancer cell line A549; test: as above; type: cell-based; settings: A549, 48 h, read-out: IC50 (μmol/L) Non-small cell lung cancer cell A549
Procedure: as §1, §2, §3

keratinocyte Colo-16 = test: as above; type: cell-based; settings: read-out: IC50 (μmol/L) Keratinocyte Colo-16
Procedure: as §1, §2, §3

[5] = tested on: prostate cancer cell PC-3; test: as above; type: cell-based; settings: read-out: IC50 (μmol/L) Prostate cancer cell PC-3
Procedure: as §1, §2, §3

[6] = tested on: human breast cancer cell line (sensitive) MCF-7/S + EGF; test: Cytotoxicity experiment under the condition of additional EGF, SRB method; type: cell-based
Procedure: Human breast cancer cell line (sensitive) MCF-7/S and human non-small cell lung cancer cell line A549 are cultured in HAM′S/F-12 medium (HyClone, USA) containing 10 wt % fetal bovine serum (FBS, Hyclone, USA), and 100 ng/ml epidermal growth factor (EGF, Sigma, USA) is added to this medium. Cells described above were purchased from Cell Resource Center, Shanghai Institute for Biological Science, CAS, they are placed in a CO2 incubator and used for the experiment 3-5 days later.
as §2, §3

[7] = target: T1, EGFR (Epidermal Growth Factor Receptor) (Homo sapiens, UniProt P00533); test: Enzyme-linked immunosorbent assay (ELISA), kinase inhibitory activity (phosphorylation of PTP1B(Tyr66) biotinylated peptide substrate); type: biochemical; settings: average of two independent parallel experiments
T1 construct: purchased CST
Excerpt: Protein kinase assay kit: PTP1B(Tyr66) Biotinylated Peptide from CST company is used as a substrate of kinase EGFR (Epidermal Growth Factor Receptor).

[8] = Solubility (physicochemical properties, Table 1); settings: room temperature, atmospheric pressure
[9] = MCF-7/S with additional EGF 100 ng/ml, 48 h, SRB, read-out: IC50 (umol/L) Breast cancer cell (sensitive) MCF-7/S + EGF
[10] = Homo sapiens, MCF7S, MCF-7/S with additional EGF 100 ng/ml, 48 h, SRB, read-out: IC50 (umol/L) Breast cancer cell (sensitive) MCF-7/S + EGF
[11] = Keratinocyte, Colo-16, 48 h, SRB

T1 sequence (P00533 25-1210): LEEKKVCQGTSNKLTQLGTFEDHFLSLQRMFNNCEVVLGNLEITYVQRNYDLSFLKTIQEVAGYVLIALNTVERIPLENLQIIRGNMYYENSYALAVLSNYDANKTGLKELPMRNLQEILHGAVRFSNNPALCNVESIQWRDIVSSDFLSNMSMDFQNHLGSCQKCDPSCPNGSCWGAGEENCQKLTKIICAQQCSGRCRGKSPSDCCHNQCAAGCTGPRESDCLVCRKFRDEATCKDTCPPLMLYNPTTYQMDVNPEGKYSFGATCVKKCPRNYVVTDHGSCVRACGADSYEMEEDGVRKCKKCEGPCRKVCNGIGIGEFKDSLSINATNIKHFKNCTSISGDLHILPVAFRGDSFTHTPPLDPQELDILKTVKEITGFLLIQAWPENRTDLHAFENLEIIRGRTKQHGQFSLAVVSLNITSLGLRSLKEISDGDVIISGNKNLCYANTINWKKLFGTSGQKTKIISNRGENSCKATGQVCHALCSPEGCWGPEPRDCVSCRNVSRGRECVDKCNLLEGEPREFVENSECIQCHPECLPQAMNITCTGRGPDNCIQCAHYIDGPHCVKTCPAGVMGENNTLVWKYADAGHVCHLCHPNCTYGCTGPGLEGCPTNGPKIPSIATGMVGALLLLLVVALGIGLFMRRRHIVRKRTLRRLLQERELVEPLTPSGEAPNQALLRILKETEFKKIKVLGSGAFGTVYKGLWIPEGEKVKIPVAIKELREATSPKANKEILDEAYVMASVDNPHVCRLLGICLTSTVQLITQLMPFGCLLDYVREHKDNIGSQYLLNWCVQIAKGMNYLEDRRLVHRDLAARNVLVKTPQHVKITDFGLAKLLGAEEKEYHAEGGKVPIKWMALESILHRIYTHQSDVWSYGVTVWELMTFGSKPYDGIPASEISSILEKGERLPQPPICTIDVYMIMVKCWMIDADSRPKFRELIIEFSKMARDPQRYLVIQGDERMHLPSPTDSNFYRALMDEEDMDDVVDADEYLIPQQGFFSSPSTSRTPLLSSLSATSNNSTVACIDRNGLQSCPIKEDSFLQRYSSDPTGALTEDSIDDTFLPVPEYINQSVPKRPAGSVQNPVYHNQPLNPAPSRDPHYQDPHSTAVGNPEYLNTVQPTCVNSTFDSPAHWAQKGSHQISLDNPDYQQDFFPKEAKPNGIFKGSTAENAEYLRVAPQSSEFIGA

Compound | Stability (in air) [1] | Stability (photostability) [1] | IC50 [2] [µmol/L] | IC50 [3] [µmol/L] | IC50 (keratinocyte Colo-16; Colo-16, 48 h, SRB) [µmol/L] | IC50 ([5]; PC-3, 48 h, SRB) [µmol/L] | IC50 [6, 9] [µmol/L] | IC50 [7] [µM] | Solubility in DMSO [8] | Solubility in methanol and ethanol [8] | Solubility in water [8] | other results
COc1cc2ncnc(Nc3ccc(F)c(Cl)c3)c2cc1OCCC[N]1CC[NH][Ru+]1([Cl])[c]1ccccc1.F[P-](F)(F)(F)(F)F (stereo not drawn) [ZW2005] | Stable in air, | photostable | > 100 | > 100 | 39.8 ± 4.85 | 38.3 ± 3.56 | 17.4 ± 1.09 | 0.174 | – | – | – | IC50 [4]: 45.1 ± 2.34 µmol/L
Cc1ccc(C(C)C)cc1.F[P-](F)(F)(F)(F)F.[Cl][Ru-]1[NH2+]CC[NH2+]1 [Pcy-Ru, reference compound] | – | – | > 100 | 13 ± 3.37 | 14.3 ± 1.5 | > 100 | 21.8 ± 1.73 | – | – | – | – | IC50 [4]: 17.3 ± 0.76 µmol/L
COc1cc2ncnc(Nc3ccc(F)c(Cl)c3)c2cc1OCC[NH+]1CC[NH2+][Pt-2]1([Cl])[Cl] (stereo not drawn) [ZY-1] | Stable in air, | photostable | – | – | – | – | – | 0.0028 | Highly soluble in DMSO | soluble in water, soluble in methanol | slightly | –
COc1cc2ncnc(Nc3ccc(F)c(Cl)c3)c2cc1OCCC[NH+]1CC[NH2+][Pt-2]1([Cl])[Cl] (stereo not drawn) [ZY-2] | Stable in air, | photostable | – | – | – | – | – | 0.017 | Highly soluble in DMSO | soluble in water, soluble in methanol | slightly | –
COc1cc2ncnc(Nc3ccc(F)c(Cl)c3)c2cc1OCCn1ccnc1 [JLY1002] | Stable in air, | photostable | – | – | – | – | – | – | Highly soluble in DMSO | soluble in water, soluble in methanol | slightly | IC50 ([2]; Homo sapiens, MCF7a): > 100 µmol/L; IC50 ([3]; Homo sapiens, MCF7S): > 100 µmol/L; IC50 ([4]; Homo sapiens): 48.2 ± 0.51 µmol/L; IC50 (keratinocyte Colo-16; Keratinocyte, 48 h): > 100 µmol/L; IC50 ([5]; 48 h): > 100 µmol/L; IC50 [6, 10]: > 100 µmol/L
COc1cc2ncnc(Nc3ccc(F)c(Cl)c3)c2cc1OCCC[N]1CC[NH][Ru+]1([Cl])[c]1cc(C(C)C)ccc1C.F[P-](F)(F)(F)(F)F (stereo not drawn) [ZW2004] | Stable in air, | photostable | > 100 | 86.8 ± 6.66 | 58.2 ± 1.49 | 79.9 ± 7.44 | 33.9 ± 1.39 | 0.106 | Highly soluble in DMSO | soluble in water, soluble in methanol | slightly | IC50 ([6]; MCF-7/S+EGF, read-out: IC50 under the test condition of MCF-7/S+EGF inhibiting the proliferation of tumor cells): 33.9 µmol/L; IC50 ([6]; MCF-7/S+EGF, read-out: IC50 under the test conditions of MCF-7/S+EGF inhibiting tumor cell proliferation): 33.9 µmol/L
COc1cc2ncnc(Nc3ccc(F)c(Cl)c3)c2cc1OCCCNCCN [ZW1002, 6-(3-(2-aminoethylamino)propoxy)-4-(3-Chloro-4-fluoro-phenylamino)-7-methoxy quinazoline] | Stable in air, | photostable | – | – | – | 13.6 ± 0.85 | – | 0.0072 | Highly soluble in DMSO | soluble in water, soluble in methanol | slightly | IC50 ([2]; Homo sapiens, MCF7a): > 100 µmol/L; IC50 ([3]; Homo sapiens, MCF7S): 16.4 ± 0.62 µmol/L; IC50 ([4]; Homo sapiens): 57.4 ± 1.98 µmol/L; IC50 (keratinocyte Colo-16; [11]): 14.5 ± 0.37 µmol/L; IC50 [6, 10]: 15.9 ± 1.15 µmol/L
COc1cc2ncnc(Nc3ccc(F)c(Cl)c3)c2cc1OCCBr [ZW1001-M, 4-(3′-chloro-4′-fluoro-phenylamino)-6-(2-bromo-ethoxy)-7-methoxy quinazoline] | Stable in air, | photostable | – | – | – | – | – | 0.018 | Highly soluble in DMSO | soluble in water, soluble in methanol | slightly | –
COc1cc2ncnc(Nc3ccc(F)c(Cl)c3)c2cc1OCC[N]1CC[NH][Ru+]1([Cl])[c]1ccccc1.F[P-](F)(F)(F)(F)F (stereo not drawn) [ZW2002] | Stable in air, | photostable | > 100 | > 100 | 42.1 ± 2.55 | > 100 | > 100 | 0.0938 | – | – | – | IC50 [4]: > 100 µmol/L
COc1cc2ncnc(Nc3ccc(F)c(Cl)c3)c2cc1OCC[N]1CC[NH][Ru+]1([Cl])[c]1cc(C(C)C)ccc1C.F[P-](F)(F)(F)(F)F (stereo not drawn) [ZW2001] | Stable in air, | photostable | > 100 | > 100 | 42.8 ± 2.46 | > 100 | 56.1 ± 2.66 | 0.081 | Highly soluble in DMSO | soluble in water, soluble in methanol | slightly | IC50 [4]: > 100 µmol/L
COc1cc2ncnc(Nc3ccc(F)c(Cl)c3)c2cc1OC [LQ1001, reference compound] | Stable in air, | photostable | – | – | – | > 100 | – | – | Highly soluble in DMSO | soluble in water, soluble in methanol | slightly | IC50 ([2]; Homo sapiens, MCF7a): > 100 µmol/L; IC50 ([3]; Homo sapiens, MCF7S): > 100 µmol/L; IC50 ([4]; Homo sapiens): > 100 µmol/L; IC50 (keratinocyte Colo-16; [11]): 88.2 ± 3.98 µmol/L; IC50 [6, 10]: 53.3 ± 3.12 µmol/L
COc1cc2ncnc(Nc3ccc(F)c(Cl)c3)c2cc1OCC[N]1CC[NH][Ru]1([Cl])([Cl])([Cl])[SH](C)(C)=O [JLY2007] | Stable in air, | photostable | – | – | – | – | – | 0.0075 | Highly soluble in DMSO | soluble in water, soluble in methanol | slightly | –
Cl.[Cl-].[Cl-].[Cl-].[Ru+3].c1c[nH]cn1.c1c[nH]cn1 [NAMI-A, reference compound] | – | – | > 100 | > 100 | > 100 | > 100 | > 100 | – | – | – | – | –
CC(=O)O[C@H]1C(=O)[C@@]2(C)[C@H]([C@H](OC(=O)c3ccccc3)[C@]3(O)C[C@H](OC(=O)[C@H](O)[C@@H](NC(=O)c4ccccc4)c4ccccc4)C(C)=C1C3(C)C)[C@]1(OC(C)=O)CO[C@@H]1C[C@@H]2O [Taxol, reference compound] | – | – | – | – | – | 0.74 ± 0.18 | – | – | – | – | – | IC50 ([2]; Homo sapiens, MCF7a): 0.44 ± 0.5 µmol/L; IC50 ([4]; Homo sapiens): 4.07 ± 1.63 µmol/L; IC50 (keratinocyte Colo-16; [11]): 1.06 ± 0.31 µmol/L; IC50 [6, 10]: 0.029 µmol/L

— patent publication US9233995B2, “Quinazoline derivatives and quinazoline complex protein kinase inhibitor for inhibiting multiplication of tumor cells and preparation method thereof” (INSTITUTE OF CHEMISTRY, CHINESE ACADEMY OF SCIENCES, priority 2010, dated 2016)
